Activity calls are given as the source filed them.
Legend:
[1] = system: HEK293; experiment: viability loss in HEK293T cells – cell-based, ATP luminescence, cherry-pick samples, cytotoxicity control, dose response (AID 687005); format: functional; settings: Homo sapiens;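 also: cells exposed to compound for 48 hours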
[2] = HEK293 Cytotoxicity Assay Measured in Cell-Based System Using Plate Reader - 7071-01_Inhibitor_Dose_CherryPick_Activity_Set2.; format: functional
[3] = system: HeLa; experiment: viability loss in HeLa cells – cell-based, ATP luminescence, cherry-pick samples, cytotoxicity control, dose response (AID 687004); format: functional; settings: Homo sapiens
[4] = target: Nuclear receptor subfamily 0 group B member 1 (Homo sapiens, UniProt P51843); format: functional, cell-based;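 also: HEK293T cells transfected with SF-1 and DAX-1 plus StAR promoter luciferase reporter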
[5] = cells; format: functional, cell-based
[6] = target: T1, Scavenger receptor class B member 1 (Mus musculus, UniProt Q61009); experiment: mouse SR-BI DiI-HDL uptake blockers – ldlA[mSR-BI] cells, fluorescence, cherry pick, dose response (AID 493194); format: functional, cell-based;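 also: cellular uptake of fluorescent DiI-labeled HDL measured as cell fluorescence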
T1 sequence (Q61009 whole entry): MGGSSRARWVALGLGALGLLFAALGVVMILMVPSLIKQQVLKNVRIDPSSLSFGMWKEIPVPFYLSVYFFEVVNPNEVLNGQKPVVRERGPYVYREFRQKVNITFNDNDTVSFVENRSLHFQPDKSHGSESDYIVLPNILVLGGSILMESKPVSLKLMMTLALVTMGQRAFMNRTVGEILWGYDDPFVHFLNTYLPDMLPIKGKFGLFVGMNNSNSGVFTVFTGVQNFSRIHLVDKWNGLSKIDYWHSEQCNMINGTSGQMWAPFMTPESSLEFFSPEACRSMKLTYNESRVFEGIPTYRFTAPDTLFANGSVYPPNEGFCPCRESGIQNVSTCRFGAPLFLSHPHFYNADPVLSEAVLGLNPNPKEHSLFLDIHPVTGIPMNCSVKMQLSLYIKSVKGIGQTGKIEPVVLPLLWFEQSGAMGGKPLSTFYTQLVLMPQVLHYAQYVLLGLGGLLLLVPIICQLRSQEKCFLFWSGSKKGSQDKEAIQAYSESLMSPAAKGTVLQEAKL

[7] = target: Broad substrate specificity ATP-binding cassette transporter ABCG2 (Homo sapiens, UniProt Q9UNQ0); experiment: blockers of JC-1 export by ABCG2 – Ig-MXP3 cells, flow cytometry, dose response (AID 1690); format: functional
[8] = target: T2, RNA-binding protein pos-1 (Caenorhabditis elegans, UniProt G5EF15); experiment: disruptors of C. elegans POS-1 RNA interaction – biochemical, fluorescence polarization, dose response (AID 1964);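 also: purified POS-1 fused to maltose binding protein made in E. coli; potency of compounds blocking POS-1 binding to fluorescent RNA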
T2 sequence (G5EF15 whole entry): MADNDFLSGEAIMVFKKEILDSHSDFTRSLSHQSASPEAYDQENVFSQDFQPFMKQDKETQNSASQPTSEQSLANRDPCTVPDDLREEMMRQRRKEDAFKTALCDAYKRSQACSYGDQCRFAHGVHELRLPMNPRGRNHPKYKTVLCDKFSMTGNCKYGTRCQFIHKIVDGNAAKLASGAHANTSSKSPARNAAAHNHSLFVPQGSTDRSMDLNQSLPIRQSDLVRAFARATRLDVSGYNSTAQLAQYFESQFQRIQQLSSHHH

[9] = target: T3, Zinc finger protein mex-5 (Caenorhabditis elegans, UniProt Q9XUB2); experiment: potency of MEX-5 RNA-binding blockers – biochemical, C. elegans, fluorescence polarization, dose response (AID 1960)
T3 sequence (Q9XUB2 whole entry): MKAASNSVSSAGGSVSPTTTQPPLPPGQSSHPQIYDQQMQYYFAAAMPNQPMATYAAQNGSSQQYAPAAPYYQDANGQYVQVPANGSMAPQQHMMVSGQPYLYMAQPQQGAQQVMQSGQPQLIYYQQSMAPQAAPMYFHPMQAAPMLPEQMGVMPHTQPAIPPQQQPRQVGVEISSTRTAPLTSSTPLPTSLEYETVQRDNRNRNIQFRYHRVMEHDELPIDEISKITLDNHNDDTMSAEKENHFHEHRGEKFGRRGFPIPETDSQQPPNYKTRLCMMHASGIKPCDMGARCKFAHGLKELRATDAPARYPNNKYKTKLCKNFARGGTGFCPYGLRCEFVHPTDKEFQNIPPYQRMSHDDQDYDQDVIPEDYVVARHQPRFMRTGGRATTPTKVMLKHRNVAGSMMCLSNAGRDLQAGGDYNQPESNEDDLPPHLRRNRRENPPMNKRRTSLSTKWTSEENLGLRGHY

[10] = target: Beta-lactamase (Pseudomonas aeruginosa, UniProt Q79MP6);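 also: biochemical dose-response test of metallo-beta-lactamase enzyme inhibition, read out by epi-absorbance; purified recombinant IMP-1 metallo-beta-lactamase with nitrocefin as substrate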
[11] = target: Beta-lactamase (Salmonella choleraesuis (strain SC-B67), UniProt Q5J463)
[12] = target: Mu-type opioid receptor (Homo sapiens, UniProt P35372); format: functional, cell-based;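 also: U2OS cells with beta-arrestin recruitment to OPRM1 by beta-gal complementation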
[13] = target: 5-hydroxytryptamine receptor 2A (Mus musculus, UniProt P35363); format: functional, cell-based;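 also: CHO-K1 cells with tagged receptor and beta-arrestin; agonist potency measured as compound-induced activation of the receptor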
[14] = Late stage assay provider results from the probe development effort to identify inhibitors of the Plasmodium falciparum M17 Leucine Aminopeptidase (M17LAP): radiolabel-based cell-based dose response assay to identify compounds that inhibit P. falciparum growth in RBCs Set 2.; format: functional
[15] = Luminescence Cell-Based Dose Response HTS to Identify Inhibitors of 5'UTR Stem-Loop Driven Prion Protein mRNA Translation in H4 Neuroglioblastoma Cells. [Related pubchem assays: 1827 (Project Summary), 1813 (Primary HTS)]; format: functional
[16] = system: BJ; experiment: BJ-TERT fibroblast viability loss – cell-based, RAS-independent, luminescence, dose response (AID 1933); format: functional; settings: Homo sapiens
[17] = system: BJ; experiment: cells; format: functional, cell-based; settings: Homo sapiens
[18] = cells; format: functional, cell-based; remark: listed apart in the source
[19] = target: T4, Calpain-2 catalytic subunit (Sus scrofa, UniProt P43367); experiment: m-calpain protease blockers, concentration series – biochemical, fluorogenic peptide substrate, dose response (AID 1420); format: functional
T4 sequence (P43367 whole entry): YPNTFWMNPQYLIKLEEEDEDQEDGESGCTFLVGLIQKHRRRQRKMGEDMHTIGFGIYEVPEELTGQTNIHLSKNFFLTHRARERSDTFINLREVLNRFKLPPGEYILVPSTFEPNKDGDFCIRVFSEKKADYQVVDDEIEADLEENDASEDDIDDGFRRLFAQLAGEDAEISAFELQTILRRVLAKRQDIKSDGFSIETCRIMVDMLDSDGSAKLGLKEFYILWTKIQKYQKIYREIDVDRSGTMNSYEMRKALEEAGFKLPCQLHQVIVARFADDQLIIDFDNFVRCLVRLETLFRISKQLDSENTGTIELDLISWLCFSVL

[20] = target: T5, Aminopeptidase N (Plasmodium falciparum FcB1/Columbia, UniProt O96935); experiment: malaria alanyl aminopeptidase activity blockers – biochemical, fluorogenic H-Leu-NHMec substrate, 1536-well (AID 1445); set-up: species or system Plasmodium falciparum 3D7, 3D7
T5 sequence (O96935 whole entry): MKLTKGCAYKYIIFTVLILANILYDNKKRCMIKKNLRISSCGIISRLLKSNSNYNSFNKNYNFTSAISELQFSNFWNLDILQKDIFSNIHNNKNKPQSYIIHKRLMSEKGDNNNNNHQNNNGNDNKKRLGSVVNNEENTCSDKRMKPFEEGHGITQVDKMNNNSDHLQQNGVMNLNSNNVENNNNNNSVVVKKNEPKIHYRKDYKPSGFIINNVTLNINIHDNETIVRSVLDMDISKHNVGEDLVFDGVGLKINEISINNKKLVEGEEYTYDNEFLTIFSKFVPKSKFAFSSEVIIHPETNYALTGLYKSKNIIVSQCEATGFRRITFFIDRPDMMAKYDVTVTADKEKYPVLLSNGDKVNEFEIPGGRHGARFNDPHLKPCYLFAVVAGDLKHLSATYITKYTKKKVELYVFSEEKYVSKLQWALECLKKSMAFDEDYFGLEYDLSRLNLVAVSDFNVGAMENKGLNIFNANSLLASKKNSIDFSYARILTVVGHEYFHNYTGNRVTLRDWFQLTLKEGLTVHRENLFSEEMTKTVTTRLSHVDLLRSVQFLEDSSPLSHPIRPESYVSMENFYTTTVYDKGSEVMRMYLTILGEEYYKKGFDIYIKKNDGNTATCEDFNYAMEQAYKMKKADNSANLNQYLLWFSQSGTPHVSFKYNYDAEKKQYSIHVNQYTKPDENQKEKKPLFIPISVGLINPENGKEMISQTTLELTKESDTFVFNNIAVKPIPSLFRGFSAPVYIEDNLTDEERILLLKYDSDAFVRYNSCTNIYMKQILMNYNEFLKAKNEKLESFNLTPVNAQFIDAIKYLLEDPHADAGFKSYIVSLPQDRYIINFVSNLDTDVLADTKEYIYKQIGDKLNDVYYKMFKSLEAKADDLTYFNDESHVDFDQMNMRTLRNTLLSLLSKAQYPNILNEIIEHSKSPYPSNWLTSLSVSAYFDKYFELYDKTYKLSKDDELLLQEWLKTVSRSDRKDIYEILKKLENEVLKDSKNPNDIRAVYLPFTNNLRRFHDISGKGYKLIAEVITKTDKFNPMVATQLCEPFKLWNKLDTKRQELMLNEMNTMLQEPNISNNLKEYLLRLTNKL

[21] = alpha-synuclein stem-loop luciferase translation blockers – H4 neuroglioma cells, luminescence, confirmation (AID 1988); format: functional, cell-based
[22] = NIH-3T3 fibroblast cytotoxicity, dose response, cytotoxicity control, cell-based, fluorescence, Alamar Blue, secondary assay (AID 2327); format: functional;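 also: NIH-3T3 mouse fibroblasts cultured with fluconazole at 8 µg/mL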
[23] = DRD fibroblast viability loss – cell-based, non-viral oncogenic, luminescence, dose response (AID 1934); format: functional; settings: Homo sapiens
[24] = system: BJ; experiment: BJ-TERT-LT-ST fibroblast viability loss – cell-based, RAS-independent, luminescence, dose response (AID 1935); format: functional; settings: Homo sapiens;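 also: BJ fibroblasts immortalized with TERT plus LT and ST oncogenes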
[25] = HGIII-sPLA2 enzyme inhibition potency – biochemical, QFRET, IC50, dose response (AID 743457);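 also: green fluorescence rise as the enzyme cleaves BODIPY PC-A2 in liposomes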
[26] = NIH3T3 cell viability loss – ATP luminescence, mouse fibroblasts, counter-screen, dose response (AID 2010); format: functional, cell-based;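 also: cells exposed to compound for about 90 hours before reading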
[27] = cells; format: functional, cell-based; remark: listed apart in the source
[28] = fluconazole-exposed Candida albicans growth modulators – fluorescence, retest, confirmation (AID 2467); format: functional, cell-based
[29] = system: Streptococcus sp. 'group A'; experiment: Streptococcus pyogenes SK(-)GAS viability under kanamycin – luminescence, BacTiterGlo, confirmation, counter-screen for streptokinase expression inhibitor project, dose response (AID 1900); format: functional, organism-based
[30] = luciferase reporter signal suppression in cells – H4 neuroglioma cells, luminescence, dose response (AID 1990); format: functional, cell-based
[31] = Trypanosoma cruzi growth suppression in host cells – NIH3T3 host cells, beta-gal luminescence, confirmation (AID 2044); format: functional, cell-based;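 also: intracellular parasites grown in NIH/3T3 mouse fibroblasts as host cells; luminescent beta-galactosidase reporter signal from transgenic T. cruzi replicating inside host cells; inhibitors lower the luminescence signal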
[32] = system: Streptococcus; experiment: GAS UMAA2166 growth inhibition – luminescence, BacTiterGlo, counter-screen for streptokinase expression inhibitor project, dose response (AID 1915); format: functional, organism-based;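 also: potency for reduction of bacterial viability or growth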
[33] = target: T1, Scavenger receptor class B member 1; experiment: blockers of DiI-HDL lipid transfer via SR-BI – cell-based, ldlA[mSR-BI] CHO, DiI fluorescence, dry powder, set 10, dose response (AID 624029); format: functional
[34] = T. cruzi growth inhibition in host cells, dose response, cell-based, plate reader, dry powder, set 2 (AID 652275); format: functional
[35] = microbe, parasite or virus in culture; format: functional; settings: Mycobacterium tuberculosis
[36] = target: Matrix metalloproteinase-14 (Homo sapiens, UniProt P50281); experiment: Dose Response confirmation of uHTS hits for a small molecule inhibitors of MT1-MMP activation in a fluorescence assay set 1.; format: functional
[37] = target: Long-chain-fatty-acid--AMP ligase FadD28 (Mycobacterium tuberculosis, UniProt P9WQ59); experiment: Fluorescence polarization aasay to screen for inhibitors that compete for the binding of FadD28 to a bisubstrate Measured in Biochemical System Using Plate Reader - 2147-01_Inhibitor_Dose_CherryPick_Activity.; format: functional, Mycobacterium tuberculosis H37Rv
Chain of Long-chain-fatty-acid--AMP ligase FadD28 (P9WQ59 whole entry): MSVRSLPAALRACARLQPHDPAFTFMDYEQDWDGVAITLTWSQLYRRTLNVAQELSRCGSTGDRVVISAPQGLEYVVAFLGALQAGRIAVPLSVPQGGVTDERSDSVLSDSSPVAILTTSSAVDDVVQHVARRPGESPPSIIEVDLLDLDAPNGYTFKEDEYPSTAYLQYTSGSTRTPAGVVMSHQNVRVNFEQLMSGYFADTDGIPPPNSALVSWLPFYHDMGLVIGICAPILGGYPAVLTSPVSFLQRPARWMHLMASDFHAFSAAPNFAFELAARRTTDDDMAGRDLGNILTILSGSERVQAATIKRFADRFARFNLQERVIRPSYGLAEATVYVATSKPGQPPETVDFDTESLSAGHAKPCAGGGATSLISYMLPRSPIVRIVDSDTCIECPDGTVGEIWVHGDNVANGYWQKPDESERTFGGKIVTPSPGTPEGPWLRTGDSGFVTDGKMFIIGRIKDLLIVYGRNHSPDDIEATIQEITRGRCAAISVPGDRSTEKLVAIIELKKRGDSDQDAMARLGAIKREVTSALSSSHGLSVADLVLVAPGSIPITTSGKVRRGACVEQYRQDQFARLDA

Chain of Mu-type opioid receptor (P35372 whole entry): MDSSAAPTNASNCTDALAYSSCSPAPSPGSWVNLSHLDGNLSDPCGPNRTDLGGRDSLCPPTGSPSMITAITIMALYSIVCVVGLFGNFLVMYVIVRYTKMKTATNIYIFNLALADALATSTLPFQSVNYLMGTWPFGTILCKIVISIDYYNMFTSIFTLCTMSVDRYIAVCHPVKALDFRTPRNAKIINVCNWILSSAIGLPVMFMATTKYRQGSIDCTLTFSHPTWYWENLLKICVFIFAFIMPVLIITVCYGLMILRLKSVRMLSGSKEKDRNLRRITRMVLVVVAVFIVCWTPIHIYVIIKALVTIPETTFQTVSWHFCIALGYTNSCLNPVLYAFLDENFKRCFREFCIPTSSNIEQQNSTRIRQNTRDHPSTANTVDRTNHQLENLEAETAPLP
Chain of 5-hydroxytryptamine receptor 2A (P35363 whole entry): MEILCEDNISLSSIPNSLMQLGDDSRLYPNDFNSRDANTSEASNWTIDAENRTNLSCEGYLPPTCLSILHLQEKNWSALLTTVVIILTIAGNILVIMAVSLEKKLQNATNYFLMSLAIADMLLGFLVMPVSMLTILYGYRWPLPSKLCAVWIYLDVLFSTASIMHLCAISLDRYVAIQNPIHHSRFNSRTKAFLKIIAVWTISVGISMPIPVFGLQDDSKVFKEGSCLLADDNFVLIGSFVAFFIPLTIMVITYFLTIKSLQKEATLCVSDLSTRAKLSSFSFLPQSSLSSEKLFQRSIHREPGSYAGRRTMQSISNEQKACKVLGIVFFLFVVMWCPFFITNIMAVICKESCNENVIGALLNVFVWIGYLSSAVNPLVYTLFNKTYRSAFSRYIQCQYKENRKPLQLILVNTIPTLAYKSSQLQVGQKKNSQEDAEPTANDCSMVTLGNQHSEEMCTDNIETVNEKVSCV
Chain of Nuclear receptor subfamily 0 group B member 1 (P51843 whole entry): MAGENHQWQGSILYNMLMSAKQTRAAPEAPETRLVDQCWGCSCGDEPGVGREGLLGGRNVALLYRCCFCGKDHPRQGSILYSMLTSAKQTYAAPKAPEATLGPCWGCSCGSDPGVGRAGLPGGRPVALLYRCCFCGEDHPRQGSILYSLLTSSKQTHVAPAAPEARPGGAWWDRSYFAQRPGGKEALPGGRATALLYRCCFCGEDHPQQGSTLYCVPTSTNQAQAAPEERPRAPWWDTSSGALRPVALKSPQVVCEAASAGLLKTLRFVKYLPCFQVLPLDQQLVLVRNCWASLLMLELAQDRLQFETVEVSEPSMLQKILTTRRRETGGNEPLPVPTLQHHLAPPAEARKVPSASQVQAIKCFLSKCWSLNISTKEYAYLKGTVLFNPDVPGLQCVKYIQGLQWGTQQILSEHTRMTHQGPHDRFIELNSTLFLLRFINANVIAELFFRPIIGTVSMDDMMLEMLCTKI
Chain of Beta-lactamase (Salmonella choleraesuis (strain SC-B67), UniProt Q5J463) (Q5J463 whole entry): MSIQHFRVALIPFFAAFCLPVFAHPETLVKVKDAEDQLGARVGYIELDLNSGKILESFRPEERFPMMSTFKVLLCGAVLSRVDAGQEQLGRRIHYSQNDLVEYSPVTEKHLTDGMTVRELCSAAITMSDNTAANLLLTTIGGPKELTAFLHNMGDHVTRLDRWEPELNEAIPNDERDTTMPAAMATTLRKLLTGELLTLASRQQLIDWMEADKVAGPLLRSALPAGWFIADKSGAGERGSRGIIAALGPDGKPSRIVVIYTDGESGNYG
Chain of Beta-lactamase (Pseudomonas aeruginosa, UniProt Q79MP6) (Q79MP6 whole entry): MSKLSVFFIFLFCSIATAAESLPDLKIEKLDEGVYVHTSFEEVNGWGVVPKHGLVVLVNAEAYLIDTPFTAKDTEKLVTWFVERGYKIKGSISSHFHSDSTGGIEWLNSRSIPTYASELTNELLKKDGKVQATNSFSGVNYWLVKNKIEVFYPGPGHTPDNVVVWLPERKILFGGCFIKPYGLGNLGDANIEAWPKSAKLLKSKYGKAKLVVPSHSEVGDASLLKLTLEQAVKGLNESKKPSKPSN
Chain of Broad substrate specificity ATP-binding cassette transporter ABCG2 (Q9UNQ0 whole entry, the tested form may be a part): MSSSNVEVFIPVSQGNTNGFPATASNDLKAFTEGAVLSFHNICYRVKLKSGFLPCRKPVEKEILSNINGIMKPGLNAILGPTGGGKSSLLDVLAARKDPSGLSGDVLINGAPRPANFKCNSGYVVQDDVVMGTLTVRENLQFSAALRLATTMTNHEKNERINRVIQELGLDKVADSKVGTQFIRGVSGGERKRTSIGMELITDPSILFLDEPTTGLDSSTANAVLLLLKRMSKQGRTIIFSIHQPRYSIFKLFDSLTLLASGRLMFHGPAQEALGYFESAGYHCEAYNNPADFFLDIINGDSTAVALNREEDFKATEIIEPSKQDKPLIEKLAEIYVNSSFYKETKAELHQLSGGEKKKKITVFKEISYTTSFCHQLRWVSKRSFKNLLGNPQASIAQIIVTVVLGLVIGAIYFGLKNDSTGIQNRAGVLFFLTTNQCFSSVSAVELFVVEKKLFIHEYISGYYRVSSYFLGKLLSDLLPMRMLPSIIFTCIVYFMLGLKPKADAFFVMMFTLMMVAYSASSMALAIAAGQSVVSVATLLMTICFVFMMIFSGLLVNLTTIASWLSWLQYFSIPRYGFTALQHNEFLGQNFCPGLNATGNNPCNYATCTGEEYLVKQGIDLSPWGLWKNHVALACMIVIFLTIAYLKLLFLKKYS

C[C@H]1CN([C@@H](C)CO)S(=O)(=O)c2ccc(C#Cc3ccccn3)cc2O[C@@H]1CN(C)Cc1ccccc1
AC50 [1]: 24.2 µM (active) | AC50 [2]: 24.2 µM (active) | AC50 [3]: > 52 µM (inactive)

CC(=Nc1ccccc1)C1=C(O)C(Cc2cccc(F)c2)NC1=O (configuration not stated)
IC50 [4]: > 67.5 µM (inactive) | IC50 [5]: > 67.5 µM (inactive)

Cc1c(C(=O)Nc2ccc(F)cc2)c2ccccn2c1CCc1ccncc1
AC50 [6]: 20.4 µM (active) | EC50 [7]: 6.84 µM (inactive)

COc1ccc(/C=C2\CCCc3c2nc2ccccc2c3C(=O)O)cc1OC
EC50 [8]: 9.28 µM (active) | EC50 [9]: 8.26 µM (inconclusive) | IC50 [10]: > 59.6 µM (inactive) | IC50 [11]: 11.2 µM (inactive)

Cc1ccc(CN2CCN(C(=O)c3ccco3)CC2)cc1
EC50 [12]: 92.5 µM (inactive) | EC50 [13]: 0.475 µM (active)

CCC(C)Oc1ccc(CC(=O)NO)cc1 (configuration not stated)
IC50 [14]: 16.3 µM (inactive)

Oc1ccccc1N=Nc1ccccc1O
EC50 [15]: > 120 µM (not active) | EC50 [16]: 0.626 µM (active) | EC50 [17]: 2.3 µM (inconclusive) | EC50 [18]: 2.06 µM (active) | IC50 [19]: > 50 µM (not active) | IC50 [20]: 22.1 µM (active) | EC50 [21]: 0.13 µM (active) | EC50 [22]: > 160 µM (inactive) | EC50 [23]: 1.15 µM (active) | EC50 [24]: 3.31 µM (inconclusive) | IC50 [25]: > 122 µM (inactive) | EC50 [26]: 12.1 µM (active) | EC50 [27]: 12.7 µM (active) | EC50 [28]: 1.38 µM (active) | EC50 [29]: 0.6 µM (active) | EC50 [30]: 14.7 µM (active) | EC50 [31]: 1.3 µM (active) | EC50 [32]: 8.99 µM (active)

CC(C)NC(=O)Nc1ccc2c(c1)C(=O)N([C@@H](C)CO)C[C@@H](C)[C@@H](CN(C)S(=O)(=O)c1ccc(Cl)cc1)O2
AC50 [33]: 69.6 µM (active)

CN(C)C(=O)c1ccc(-c2ccc([C@H]3[C@H](CO)N4CCCCN(C(=O)C5CCC5)C[C@@H]34)cc2)cc1
AC50 [34]: 0.072 µM (active)

COc1ccc(-c2oc3ccc(-c4ccc(OC)nc4)cc3c2C#CC2(O)CCCCC2)cc1
CC50 [35]: > 40 µM (active) | IC50 [36]: 5.57 µM (active)

O=[N+]([O-])c1ccc(CNc2ccc(Cl)cc2)s1
AC50 [37]: > 100 µM (inactive)

From ChEMBL document CHEMBL1201862, “PubChem BioAssay data set” (2004)
